“Also recorded” adds a separate entry of the source.
Experiments:
Format in all cases: cell-based, human
[1] = test system: HIF-1α protein; test: HIF-1α protein accumulation, western blot; conditions: foam cells; for Antagonism of adenosine induced HIF-1α protein accumulation: hypoxia, adenosine 100 μM, antagonist 100 nM
Description: Hypoxic exposures were done in a modular incubator chamber and flushed with a gas mixture containing 1% O2, 5% CO2 and balance N2 (MiniGalaxy, RSBiotech, Irvine, Scotland).
U937 cells were induced to differentiate into macrophages by treatment with phorbol myristate acetate (PMA, 40 nM) for 72 h. […] All dialyses were carried out with Pierce Slide-A-Lyzer cassettes (10,000 molecular wheight cut-off).
Whole cell lysates were prepared as described previously (27). […] In experiments aimed to detect HIF, western blot analyses were performed using antibody against HIF-1a (1:250 dilution) and HIF-1β (1:1000 dilution) in 5% non-fat dry milk in PBS/0.1% Tween-20 overnight at 4° C. The protein concentration was determined using BCA protein assay kit (Pierce, Rockford, Ill.). Tubulin (1:250) was used to ensure equal protein loading. Immunoreactivity was assessed and quantified by using a VersaDoc Imaging System (Bio-Rad).

[2] = test system: VEGF; test: VEGF secretion by U937 derived foam cells, ELISA; conditions: 24 h, hypoxia, adenosine 100 μM, antagonist 100 nM
Description: (§1) U937 cells were induced to differentiate into macrophages by treatment with phorbol myristate acetate (PMA, 40 nM) for 72 h. Before use oxLDL was dialyzed against 1 L of 0.15 M sodium chloride and 0.3 mM EDTA (pH 7.4) for 12 h at 4° C., then against RPMI 1640 medium (two changes, 1 L/each change) for 24 h. All dialyses were carried out with Pierce Slide-A-Lyzer cassettes (10,000 molecular wheight cut-off). After dialysis, lipoproteins were sterilized by passing them through a 0.45 μm (pore-size) filter, then added (50-100 μg/mL, Intracel, Frederick, Md.) to PMA-treated U937 cells and incubated in serum-free RPMI 1640 for 48 h.
(§2) The levels of VEGF and IL-8 protein secreted by the cells in the medium were determined by VEGF and IL-8 ELISA kits (R&D Systems) according to the manufacturer's instructions. The data were presented as mean±SD from three independent experiments.

[3] = test system: foam cell formation from PMA-treated U937 cells; test: Oil red O staining, foam cell formation; conditions: oxLDL 50 μg/mL; for Effect on oxLDL and adenosine induced foam cells formation: adenosine 100 μM
Description: as §1
Treatment of PMA-differentiated U937 cells with test agents was performed 2 h before addition of oxLDL. After exposition to oxLDL under hypoxia for 24 h, U937 cells were fixed in phosphate buffered saline-buffered 4% paraformaldehyde solution for 15 min and then air dried. Oil red O (in 60% isopropanol) staining was done for 15 min essentially as described previously by Kalayoglu and Byrne (Infect. Immun., 66: 5067-5072, 1998). Cells were viewed under a bright-field microscope in 100× fields using a Nikon's Eclipse E800 microscope. Foam cells were defined as macrophages in which cytoplasm was filled with Oil red O-stainable lipid droplets.

[4] = test system: IL-8; test: IL-8 secretion by U937 derived foam cells, ELISA
Description: as §1, §2

| SMILES | Antagonism of adenosine induced HIF-1α protein accumulation [1] | Reduction of adenosine induced VEGF increase [2] | Effect on oxLDL and adenosine induced foam cells formation ([3]; antagonist 100 nM) | other results |
| --- | --- | --- | --- | --- |
| CCNC(=O)[C@H]1O[C@@H](n2cnc3c(Nc4ccc(OCC(=O)Nc5ccccc5)cc4)ncnc32)[C@H](O)[C@@H]1O [1-deoxy-1-[6-{4-[(phenylcarbamoyl)-methoxy]phenylamino}-9H-purin-9-yl]-N-ethyl-β-D-ribofuranuronamide] |  |  |  | Induction of HIF-1α protein by adenosine receptor agonists ([1]; CHA 10, 100 nM, CGS 21680 500, 1000 nM, A2B agonist 10, 100 nM, CI-IB-MECA 10, 100 nM): able to induce HIF-1α protein |
| CCCn1c(=O)c2[nH]c(-c3cc(OCC(=O)Nc4ccc5c(c4)OCO5)nn3C)nc2n(CCC)c1=O [MRE-2029F20, N-benzo[1,3]dioxol-5-yl-2-[5-(1,3-dipropyl-2,6-dioxo-2,3,6,7-tetrahydro-1H-purin-8-yl)-1-methyl-1H-pyrazol-3-yl-oxy]-acetamide] | partially antagonized | strongly reduced | blocked the foam cells formation; also recorded: inhibition of foam cell formation | Block of the effect of the adenosine A2B receptor agonist (1 μM) on IL-8 secretion [4]: completely blocked; Block of adenosine induced IL-8 increase ([4]; hypoxia, adenosine 100 μM, antagonist 100 nM): blocked |
| CCCn1cc2c(nc(NC(=O)Nc3ccc(OC)cc3)n3nc(-c4ccco4)nc23)n1 [MRE-3008F20, 5-[[(4-methoxyphenyl)amino]carbonyl]amino-8-propyl-2-(2-furyl)-pyrazolo[4,3-e]-1,2,4-triazolo[1,5-c]pyrimidine] | partially antagonized | strongly reduced | inhibition of foam cell formation; also recorded: blocked the foam cells formation |  |
| Nc1nc2c(cnn2CCc2ccccc2)c2nc(-c3ccco3)nn12 [SCH 58261] | partially antagonized | inhibited to lesser extent |  |  |
| COc1ccccc1NC(=O)Nc1nc(-c2cccnc2)nc2ccccc12 [VUF 5574] |  |  |  | Effect on oxLDL and adenosine induced foam cells formation ([3]; antagonist 10 nM): blocked the foam cells formation; also recorded: inhibition of foam cell formation |
| Nc1ncnc2c1ncn2[C@@H]1O[C@H](CO)[C@@H](O)[C@H]1O [adenosine] |  |  |  | Foam cells (Oil red O) on top of oxLDL ([3]; 24 h, 100 μM): increased |

From patent publication US20110190324A1, “METHODS OF TREATING ATHEROSCLEROSIS” (priority 2008, published 2011)
